Reference: EP4678634A1, “ANDROGEN RECEPTOR MODULATORS AND USES THEREOF” (Haihe Biopharma Co., Ltd., priority 2023, dated 2024)

molecular target: T1, Androgen receptor (AR) (Homo sapiens, UniProt P10275); assay: Androgen receptor (AR) reporter gene assay (luciferase); format: cell-based; settings: AR+ARE/Luc HEK293T cells, stimulated with 11-KDHT, 24h incubation, Bright-Lite luminescence; read-out: HEK293 Luc IC50
T1 construct: expressed in transfected cells; host or cells: HEK293T (AR+ARE/Luc)
T1 sequence (P10275 1-920): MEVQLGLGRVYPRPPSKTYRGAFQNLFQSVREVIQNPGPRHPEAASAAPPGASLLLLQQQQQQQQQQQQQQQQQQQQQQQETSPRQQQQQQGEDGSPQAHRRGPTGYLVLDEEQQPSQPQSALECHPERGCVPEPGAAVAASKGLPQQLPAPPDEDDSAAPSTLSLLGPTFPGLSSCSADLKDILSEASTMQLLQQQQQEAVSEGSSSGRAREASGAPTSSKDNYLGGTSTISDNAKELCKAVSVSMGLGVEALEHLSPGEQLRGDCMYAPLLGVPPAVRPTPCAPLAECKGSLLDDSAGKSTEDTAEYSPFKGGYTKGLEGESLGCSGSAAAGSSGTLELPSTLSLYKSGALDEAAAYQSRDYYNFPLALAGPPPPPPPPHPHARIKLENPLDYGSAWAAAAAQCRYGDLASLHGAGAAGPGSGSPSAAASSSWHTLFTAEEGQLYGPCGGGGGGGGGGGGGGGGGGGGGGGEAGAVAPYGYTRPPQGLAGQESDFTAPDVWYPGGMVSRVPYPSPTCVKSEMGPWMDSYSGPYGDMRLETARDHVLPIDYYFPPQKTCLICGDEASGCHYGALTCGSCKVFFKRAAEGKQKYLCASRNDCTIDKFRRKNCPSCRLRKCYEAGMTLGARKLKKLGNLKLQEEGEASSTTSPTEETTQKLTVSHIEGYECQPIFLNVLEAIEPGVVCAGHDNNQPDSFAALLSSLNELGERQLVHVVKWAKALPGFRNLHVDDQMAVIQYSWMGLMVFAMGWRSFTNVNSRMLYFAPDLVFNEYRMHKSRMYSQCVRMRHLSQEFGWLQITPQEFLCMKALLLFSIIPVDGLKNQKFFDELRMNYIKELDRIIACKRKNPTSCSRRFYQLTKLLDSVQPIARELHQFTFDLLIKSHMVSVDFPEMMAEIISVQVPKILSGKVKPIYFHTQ
Experimental: Androgen receptor (AR) reporter gene assay
Experimental reagents: 11-Ketodihydrotestosterone (11-KDHT) was purchased from MCE (cat.HY-135794); Enzalutamide (MDV3100) was purchased from Selleck (cat.S1250); Bright-Lite Luciferase Assay kit was purchased from Vazyme (cat.DD1204-01);
• 1. dissolve the described compounds in 100% DMSO at a final concentration of 10 mM. 100 nL each of 400X compound to be tested and 400X 11-KDHT (40 nM) were added to a 384-well assay plate with Echo, followed by 20 µL of complete medium, and centrifuged at 1000 rpm for 1 min, and oscillated for 20-30 min at room temperature. • 2. 20 µL of AR+ARE/Luc HEK293T cells (10,000 cells/well) were inoculated into the assay plate containing the compounds and 11-KDHT, and centrifuged at 1000 rpm for 1 min. The assay plate was incubated in a 37 °C CO2 incubator for 24h. • 3. 40 µL of Bright-Lite assay reagent was transferred to each well of the assay plate, centrifuged at 1000 rpm for 1 min, and shaken for 2 min at room temperature protected from light. Luminescence values (RLU) were measured using Envision. Based on the results, the IC50 values of the compounds described were calculated. Table 1 HEK293-Luc% inhibition IC50 of representative compounds

SMILES | IC50
N#Cc1cc2c(c(Cl)c1OCCCl)CCCC2Nc1cncc(F)c1 (stereo not drawn) [HANT-254] | 1 to 500 nM
N#Cc1cc2c(c(Cl)c1OCCCl)CCCC2c1cccnc1 (stereo not drawn) [HANT-255] | 1 to 500 nM
N#Cc1cc2c(c(Cl)c1OCCCl)CCCC2c1cncc(N)c1 (stereo not drawn) [HANT-256] | 1000 to 2000 nM
CCCOc1c(C#N)cc2c(c1Cl)CCCC2c1cnc(N)nc1 (stereo not drawn) [HANT-257] | 1 to 500 nM
Cn1ccc(NC2CCCc3c2cc(C#N)c(OCCCl)c3Cl)cc1=O (stereo not drawn) [HANT-261] | 500 to 1000 nM
N#Cc1ccc(NC2CCCc3c2cc(C#N)c(OCCCl)c3Cl)cn1 (stereo not drawn) [HANT-262] | 1 to 500 nM
CNC(=O)c1ccc(NC2CCCc3c2cc(C#N)c(OCCCl)c3Cl)cn1 (stereo not drawn) [HANT-263] | 1 to 500 nM
N#Cc1cc2c(c(Cl)c1OCCCl)CCCC2NC1CCCOC1 (stereo not drawn) [HANT-264] | > 2000 nM
COc1cncc(NC2CCCc3c2cc(C#N)c(OCCCl)c3Cl)c1 (stereo not drawn) [HANT-266] | 1 to 500 nM
N#Cc1cc2c(c(Cl)c1OCCCl)CCCC2Oc1cccnc1 (stereo not drawn) [HANT-267] | 1 to 500 nM
CCCOc1c(C#N)cc2c(c1Cl)CCCC2Nc1ccc2[nH]ncc2c1 (stereo not drawn) [HANT-268, 8-((1H-indazol-5-yl)amino)-4-chloro-3-propoxy-5,6,7,8-tetrahydronaphthalene-2-carbonitrile] | 1 to 500 nM
CCOc1c(C#N)cc2c(c1Cl)CCCC2Nc1ccc2[nH]ncc2c1 (stereo not drawn) [HANT-269, 8-((1H-indazol-5-yl)amino)-4-chloro-3-ethoxy-5,6,7,8-tetrahydronaphthalene-2-carbonitrile] | 1 to 500 nM
COc1ccc(C2CCCc3c2cc(C#N)c(OCCCl)c3Cl)cc1 (stereo not drawn) [HANT-334] | 1 to 500 nM
COc1ccc(C2CCCc3c2cc(C#N)c(OCCCl)c3Cl)cn1 (stereo not drawn) [HANT-335] | 1 to 500 nM
Oc1ccc(C2CCCc3c2cc(Cl)c(OCCCl)c3Cl)cc1 (stereo not drawn) [HANT-336A, 4-(5,7-dichloro-6-(2-chloroethoxy)-1,2,3,4-tetrahydronaphthalen-1-yl)phenol] | 500 to 1000 nM
Oc1ccc(C2CCCc3c2cc(Cl)c(OCCCl)c3Cl)cc1 (stereo not drawn) [HANT-336B, 4-(5,7-dichloro-6-(2-chloroethoxy)-1,2,3,4-tetrahydronaphthalen-1-yl)phenol] | 1 to 500 nM
N#Cc1cc2c(c(Cl)c1OCCCl)CCCC2c1ccc2c(c1)C(=O)NC2 (stereo not drawn) [HANT-948] | 500 to 1000 nM
Cn1nc(C2CCCc3c2cc(C#N)c(OCCCl)c3Cl)c2ccccc21 (stereo not drawn) [HANT-949] | 1000 to 2000 nM
Cn1cc2c(n1)CN(C1CCCc3c1cc(C#N)c(OCCCl)c3Cl)C2 (stereo not drawn) [HANT-950, 4-Chloro-3-(2-chloroethoxy)-8-(2-methyl-2,6-dihydropyrrolo[3,4-c]pyrazol-5(4H)-yl)-5,6,7,8-t etrahydronaphthalene-2-carbonitrile] | 1000 to 2000 nM
N#Cc1cc2c(c(Cl)c1OCCCl)CCCC2c1ccc2c(c1)C(=O)NC2=O (stereo not drawn) [HANT-977] | 1 to 500 nM
N#Cc1cc2c(c(Cl)c1OCCCl)CCCC2c1ccc2n[nH]c(=O)n2c1 (stereo not drawn) [HANT-978] | 1 to 500 nM
N#Cc1cc2c(c(Cl)c1OCCCl)CCCC2c1cc2c3c(cccc3c1)NC2=O (stereo not drawn) [HANT-979, 4-Chloro-3-(2-chloroethoxy)-8-(2-oxo-1,2-dihydrobenzo[cd]indol-4-yl)-5,6,7,8-tetrahydronapht halene-2-carbonitrile] | 500 to 1000 nM
CN1C(=O)c2ccc(C3CCCc4c3cc(C#N)c(OCCCl)c4Cl)cc2C1=O (stereo not drawn) [HANT-982] | 1 to 500 nM
CN1Cc2ccc(C3CCCc4c3cc(C#N)c(OCCCl)c4Cl)cc2C1=O (stereo not drawn) [HANT-983] | > 2000 nM
